Reference: publication PMC3783901, “A spectrophotometric coupled enzyme assay to measure the activity of succinate dehydrogenase^” (Analytical Biochemistry, 2013)
Like-named read-outs stand apart in the source and are kept apart here. One block for each molecule: values may come before it.

How the values were obtained:
[1] = molecular target: T1, complex II (succinate:ubiquinone oxidoreductase, succinate dehydrogenase) in bovine heart submitochondrial particles (Bos taurus, UniProt P31039+P35720+Q3T189+Q95123); test: coupled FumC-MaeB assay of succinate oxidation in SMPs, NADPH absorbance; type: biochemical; details: 5 mM succinate, pH 7.4, 32 °C, 2 mM NADP+, 2 mM MgSO4
T1 construct: gene SDHA; native four-subunit complex in submitochondrial particles from bovine heart mitochondria, not isolated; dicarboxylate site in SDHA, ubiquinone site at SDHB/SDHC/SDHD
T1 sequence (P31039 44-665): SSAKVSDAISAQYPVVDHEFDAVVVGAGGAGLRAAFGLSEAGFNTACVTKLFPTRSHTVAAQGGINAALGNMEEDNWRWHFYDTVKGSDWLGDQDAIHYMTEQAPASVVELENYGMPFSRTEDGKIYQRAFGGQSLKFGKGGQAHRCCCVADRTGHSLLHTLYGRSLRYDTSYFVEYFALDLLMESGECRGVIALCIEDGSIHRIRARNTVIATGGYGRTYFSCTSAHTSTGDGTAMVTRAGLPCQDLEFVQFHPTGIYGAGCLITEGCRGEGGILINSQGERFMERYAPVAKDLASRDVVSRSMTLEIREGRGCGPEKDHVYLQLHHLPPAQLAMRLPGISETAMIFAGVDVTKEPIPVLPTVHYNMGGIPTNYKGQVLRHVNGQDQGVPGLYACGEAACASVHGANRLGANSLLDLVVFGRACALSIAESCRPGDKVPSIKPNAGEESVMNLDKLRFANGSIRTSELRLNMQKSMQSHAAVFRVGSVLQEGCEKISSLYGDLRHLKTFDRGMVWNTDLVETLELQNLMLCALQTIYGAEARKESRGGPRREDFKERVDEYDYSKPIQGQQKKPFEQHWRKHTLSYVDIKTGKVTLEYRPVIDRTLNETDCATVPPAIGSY
T1 sequence (Q3T189 29-280): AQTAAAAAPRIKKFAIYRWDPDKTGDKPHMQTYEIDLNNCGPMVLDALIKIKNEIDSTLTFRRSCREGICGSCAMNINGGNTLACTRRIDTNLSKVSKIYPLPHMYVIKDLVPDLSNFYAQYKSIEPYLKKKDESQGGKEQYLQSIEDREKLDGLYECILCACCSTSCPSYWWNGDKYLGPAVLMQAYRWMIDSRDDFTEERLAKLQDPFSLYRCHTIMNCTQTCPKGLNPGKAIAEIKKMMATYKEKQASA
T1 sequence (P35720 30-169): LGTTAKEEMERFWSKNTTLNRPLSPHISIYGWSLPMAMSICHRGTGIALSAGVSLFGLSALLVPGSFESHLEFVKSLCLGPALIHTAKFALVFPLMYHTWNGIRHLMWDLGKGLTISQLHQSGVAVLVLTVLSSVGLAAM
T1 sequence (Q95123 56-158): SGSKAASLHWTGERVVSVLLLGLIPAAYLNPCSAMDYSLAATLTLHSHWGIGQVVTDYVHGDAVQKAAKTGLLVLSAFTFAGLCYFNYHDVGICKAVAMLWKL
From the text: coupled FumC-MaeB assay of succinate oxidation in SMPs, NADPH absorbance on complex II (succinate:ubiquinone oxidoreductase, succinate dehydrogenase) in bovine heart submitochondrial particles | atpenin A5, an inhibitor that binds in the complex II ubiquinone-binding site, has an IC50 | malonate, an inhibitor that binds in the complex II flavin site, has an IC50

[2] = molecular target: FumC (fumarate hydratase) (Escherichia coli, UniProt P05042); details: pH 7.4, 32 °C, 10 mM Tris-SO4, 2 mM MgSO4, 1 mM K2SO4, 2 mM NADP+, 300 μg/ml MaeB; kcat apparently per tetramer
Sequence of FumC (fumarate hydratase) (P05042 whole entry): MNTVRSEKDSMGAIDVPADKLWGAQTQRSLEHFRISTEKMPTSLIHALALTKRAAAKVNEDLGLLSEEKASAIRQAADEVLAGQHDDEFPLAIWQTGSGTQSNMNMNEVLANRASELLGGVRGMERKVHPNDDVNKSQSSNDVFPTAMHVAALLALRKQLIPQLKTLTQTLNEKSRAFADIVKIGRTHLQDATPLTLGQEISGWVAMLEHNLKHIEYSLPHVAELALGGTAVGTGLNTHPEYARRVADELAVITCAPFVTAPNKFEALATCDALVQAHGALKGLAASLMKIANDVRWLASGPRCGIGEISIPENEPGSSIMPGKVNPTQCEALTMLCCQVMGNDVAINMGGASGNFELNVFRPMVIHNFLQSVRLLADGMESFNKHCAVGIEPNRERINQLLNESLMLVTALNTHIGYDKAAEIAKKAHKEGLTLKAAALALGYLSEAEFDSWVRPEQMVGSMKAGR

[3] = molecular target: T1, complex II (succinate:ubiquinone oxidoreductase, succinate dehydrogenase) in bovine heart submitochondrial particles; test: coupled FumC-MaeB assay of succinate oxidation in SMPs, NADPH absorbance; type: biochemical; details: pH 7.4, 32 °C, 2 mM NADP+, 2 mM MgSO4, endogenous ubiquinone-10, turnover to O2, kcat uses a published complex II content
purified protein [4] = substrate: NC(=O)c1ccc[n+]([C@@H]2O[C@H](COP(=O)(O)OP(=O)(O)OC[C@H]3O[C@@H](n4cnc5c(N)ncnc54)[C@H](OP(=O)(O)O)[C@@H]3O)[C@@H](O)[C@H]2O)c1; test: purified protein; details: 40 mM malate, pH 7.4, 32 °C, 10 mM Tris-SO4, 2 mM MgSO4, 1 mM K2SO4
purified protein [5] = substrate: O=C(O)C[C@H](O)C(=O)O; test: purified protein; details: 4 mM NADP+, pH 7.4, 32 °C, 10 mM Tris-SO4, 2 mM MgSO4, 1 mM K2SO4, kcat apparently per octamer, malate stereo not given

Molecule: COc1[nH]c(=O)c(C(=O)[C@@H](C)C[C@H](C)[C@@H](Cl)CCl)c(O)c1OC [atpenin A5]
IC50 ([1]; ubiquinone-binding site, full respiratory chain turnover to O2): 0.0024 ± 0.0012 µM

Molecule: O=C(O)CC(=O)O [malonate]
IC50 ([1]; flavin (succinate) site, read-out: IC50): 96 ± 1.3 µM

B1: MaeB (oxaloacetate decarboxylating malic dehydrogenase) (Escherichia coli K-12) (protein)
chain: MDDQLKQSALDFHEFPVPGKIQVSPTKPLATQRDLALAYSPGVAAPCLEIEKDPLKAYKYTARGNLVAVISNGTAVLGLGNIGALAGKPVMEGKGVLFKKFAGIDVFDIEVDELDPDKFIEVVAALEPTFGGINLEDIKAPECFYIEQKLRERMNIPVFHDDQHGTAIISTAAILNGLRVVEKNISDVRMVVSGAGAAAIACMNLLVALGLQKHNIVVCDSKGVIYQGREPNMAETKAAYAVVDDGKRTLDDVIEGADIFLGCSGPKVLTQEMVKKMARAPMILALANPEPEILPPLAKEVRPDAIICTGRSDYPNQVNNVLCFPFIFRGALDVGATAINEEMKLAAVRAIAELAHAEQSEVVASAYGDQDLSFGPEYIIPKPFDPRLIVKIAPAVAKAAMESGVATRPIADFDVYIDKLTEFVYKTNLFMKPIFSQARKAPKRVVLPEGEEARVLHATQELVTLGLAKPILIGRPNVIEMRIQKLGLQIKAGVDFEIVNNESDPRFKEYWTEYFQIMKRRGVTQEQAQRALISNPTVIGAIMVQRGEADAMICGTVGDYHEHFSVVKNVFGYRDGVHTAGAMNALLLPSGNTFIADTYVNDEPDAEELAEITLMAAETVRRFGIEPRVALLSHSNFGSSDCPSSSKMRQALELVRERAPELMIDGEMHGDAALVEAIRNDRMPDSSLKGSANILVMPNMEAARISYNLLRVSSSEGVTVGPVLMGVAKPVHVLTPIASVRRIVNMVALAVVEAQTQPL
Km (purified protein [4]): 52 ± 2.6 µM
Km (purified protein [5]): 7300 ± 900 µM
kcat (purified protein [5]): 92 ± 0.93 s⁻¹

More lines, now with the values ahead:

Km [2]: 64 ± 7.8 µM
Molecule: O=C(O)/C=C/C(=O)O [fumarate]

Km [3]: 410 ± 55 µM
Molecule: O=C(O)CCC(=O)O [succinate]
